Values quoted from earlier work in publication PMC11070244 (Current Research in Structural Biology, 2024).

Columns and labels:
BChE [1] = target: T1, BChE (Homo sapiens, UniProt P06276); settings: ref Khan et al., 2009
AChE = AChE (Homo sapiens, UniProt P22303); settings: in vitro experiments; ref Durmaz et al. (2023)
BChE [2] = target: T1, BChE; settings: in vitro experiments; ref Durmaz et al. (2023)

T1 sequence (P06276 29-602, species assumed): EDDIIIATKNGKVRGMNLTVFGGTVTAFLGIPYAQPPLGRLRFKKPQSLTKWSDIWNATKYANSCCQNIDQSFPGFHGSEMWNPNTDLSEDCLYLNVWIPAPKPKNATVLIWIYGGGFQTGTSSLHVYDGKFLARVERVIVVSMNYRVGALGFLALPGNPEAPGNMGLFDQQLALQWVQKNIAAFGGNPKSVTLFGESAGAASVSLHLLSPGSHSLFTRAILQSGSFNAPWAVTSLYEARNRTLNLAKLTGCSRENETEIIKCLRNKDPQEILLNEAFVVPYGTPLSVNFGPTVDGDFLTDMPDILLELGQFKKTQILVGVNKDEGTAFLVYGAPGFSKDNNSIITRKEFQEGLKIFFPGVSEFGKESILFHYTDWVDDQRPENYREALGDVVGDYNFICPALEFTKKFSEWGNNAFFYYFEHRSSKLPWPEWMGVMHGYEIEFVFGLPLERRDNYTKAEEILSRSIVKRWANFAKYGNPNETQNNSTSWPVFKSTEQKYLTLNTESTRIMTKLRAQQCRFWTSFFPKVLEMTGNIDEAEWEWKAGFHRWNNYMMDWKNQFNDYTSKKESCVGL
Chain of AChE (P22303 32-614): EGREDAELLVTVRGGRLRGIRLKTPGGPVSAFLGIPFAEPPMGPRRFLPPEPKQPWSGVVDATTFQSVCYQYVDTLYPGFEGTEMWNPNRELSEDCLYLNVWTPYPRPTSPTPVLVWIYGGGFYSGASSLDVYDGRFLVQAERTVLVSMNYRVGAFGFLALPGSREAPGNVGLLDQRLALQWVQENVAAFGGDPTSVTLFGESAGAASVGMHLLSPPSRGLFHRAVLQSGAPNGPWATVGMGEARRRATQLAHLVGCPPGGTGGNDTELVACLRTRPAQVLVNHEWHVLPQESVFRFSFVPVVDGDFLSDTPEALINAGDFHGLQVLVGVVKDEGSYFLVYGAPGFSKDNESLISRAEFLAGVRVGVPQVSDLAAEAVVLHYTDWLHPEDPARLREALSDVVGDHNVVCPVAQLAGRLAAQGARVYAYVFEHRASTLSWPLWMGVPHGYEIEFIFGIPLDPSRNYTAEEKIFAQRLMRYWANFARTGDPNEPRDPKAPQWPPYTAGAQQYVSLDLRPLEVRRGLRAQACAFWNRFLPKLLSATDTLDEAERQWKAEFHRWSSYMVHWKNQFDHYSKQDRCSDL

## O=c1c(O)c(-c2ccc(O)c(O)c2)oc2cc(O)cc(O)c12 [quercetin]
BChE [1]
  Docking score with BChE compared to donepezil: stronger docking score

## O=C(O)[C@H]1O[C@@H](Oc2cc3oc(-c4ccccc4)cc(=O)c3c(O)c2O)[C@H](O)[C@@H](O)[C@@H]1O [baicalin]
AChE
  Inhibition of AChE activity: significantly inhibited
BChE [2]
  Inhibition of BChE activity: significantly inhibited
